Measured values published in PubChem BioAssay AID330 (DTP/NCI, 2004).
Values joined by “and” are separate entries in the source; they are usually repeats but may differ in a detail not shown here. Identical values can stand only once. Toxic doses and inconclusive results are not listed. How the source made its calls: active means survival T/C of 150% or more; inactive means T/C below 125% in these data.

System: P388 leukemia ip, CD2F1 mice, survival T/C
Assay: NCI In Vivo Anticancer Drug Screen. Data for tumor model P388 Leukemia (intraperitoneal) in CD2F1 (CDF1) mice
Details: endpoint: median survival time, higher = longer survival
In short: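 Mice carrying the transplanted tumor received test compound or vehicle. Survival was recorded in each group, and the value is the treated-group measurement divided by that of the vehicle-treated control group.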

[1] = dose: 100.0 mg/kg/injection, schedule: Q01DX009 (ip), vehicle: saline with Tween-80
[2] = dose: 200.0 mg/kg/injection, schedule: Q01DX009 (ip), vehicle: saline with Tween-80
[3] = dose: 50.0 mg/kg/injection, schedule: Q01DX005 (ip), vehicle: Klucel (hydroxypropylcellulose) (HPC)
[4] = dose: 100.0 mg/kg/injection, schedule: Q01DX005 (ip), vehicle: Klucel (hydroxypropylcellulose) (HPC)
[5] = dose: 100.0 mg/kg/injection, schedule: Q01DX001 (ip), vehicle: saline with Tween-80
[6] = dose: 200.0 mg/kg/injection, schedule: Q01DX001 (ip), vehicle: saline with Tween-80
[7] = dose: 400.0 mg/kg/injection, schedule: Q01DX001 (ip), vehicle: saline with Tween-80
[8] = dose: 50.0 mg/kg/injection, schedule: Q01DX005 (ip), vehicle: saline with Tween-80
[9] = dose: 100.0 mg/kg/injection, schedule: Q01DX005 (ip), vehicle: saline with Tween-80
[10] = dose: 200.0 mg/kg/injection, schedule: Q01DX005 (ip), vehicle: saline with Tween-80
[11] = dose: 12.5 mg/kg/injection, schedule: Q01DX005 (ip), vehicle: saline with Tween-80
[12] = dose: 25.0 mg/kg/injection, schedule: Q01DX005 (ip), vehicle: saline with Tween-80

Measured: T/C

CCC(C)C(NC(=O)C(Cc1c[nH]c2ccccc12)NC(=O)OC(C)(C)C)C(=O)OC (stereo not given)
inactive: dose: 12.5 mg/kg/injection, schedule: Q01DX009 (ip), vehicle: other 99 % of control | dose: 25.0 mg/kg/injection, schedule: Q01DX009 (ip), vehicle: other 104 % of control | dose: 50.0 mg/kg/injection, schedule: Q01DX009 (ip), vehicle: other 104 % of control | dose: 100.0 mg/kg/injection, schedule: Q01DX009 (ip), vehicle: other 106 % of control | dose: 200.0 mg/kg/injection, schedule: Q01DX009 (ip), vehicle: other 110 % of control

Cc1nc2[nH][nH]c(=O)c2nc1C
inactive: [1] 100 % of control | dose: 100.0 mg/kg/injection, schedule: Q01DX009 (ip), vehicle: saline 108 % of control | [2] 96 % of control | dose: 200.0 mg/kg/injection, schedule: Q01DX009 (ip), vehicle: saline 102 % of control | dose: 400.0 mg/kg/injection, schedule: Q01DX009 (ip), vehicle: saline with Tween-80 94 % of control | dose: 400.0 mg/kg/injection, schedule: Q01DX009 (ip), vehicle: saline 102 % of control | dose: 600.0 mg/kg/injection, schedule: Q01DX009 (ip), vehicle: saline with Tween-80 94 % of control | dose: 600.0 mg/kg/injection, schedule: Q01DX009 (ip), vehicle: saline 98 % of control

CC1(C)OP(=O)(O)C=C1[Se]c1ccccc1
inactive: [3] 100 % of control | [4] 102 % of control | dose: 200.0 mg/kg/injection, schedule: Q01DX005 (ip), vehicle: Klucel (hydroxypropylcellulose) (HPC) 94 % of control

CCOC(=O)Nc1cccc([N+](=O)[O-])c1
inactive: dose: 100.0 mg/kg/injection, schedule: Q04DX003 (ip), vehicle: other 95 % of control | dose: 200.0 mg/kg/injection, schedule: Q04DX003 (ip), vehicle: other 95 % of control | dose: 400.0 mg/kg/injection, schedule: Q04DX003 (ip), vehicle: other 100 % of control

C#CCN(Cc1ccc2nc(N)[nH]c(=O)c2c1)c1ccc(C(=O)NC(CCC(=O)O)C(=O)O)cc1 (stereo not given)
inactive: dose: 12.5 mg/kg/injection, schedule: Q01DX005 (ip), vehicle: water 103 % of control and 104 % of control and 97 % of control | dose: 25.0 mg/kg/injection, schedule: Q01DX005 (ip), vehicle: water 103 % of control and 104 % of control (2×) | dose: 50.0 mg/kg/injection, schedule: Q01DX005 (ip), vehicle: water 109 % of control and 120 % of control (2×) | dose: 100.0 mg/kg/injection, schedule: Q01DX005 (ip), vehicle: water 117 % of control | dose: 150.0 mg/kg/injection, schedule: Q01DX005 (ip), vehicle: alkali diluted with water 97 % of control | dose: 200.0 mg/kg/injection, schedule: Q01DX005 (ip), vehicle: water 97 % of control

CSc1ccccc1C(=S)N1CCOCC1
inactive: [5] 100 % of control | [6] 90 % of control | [7] 109 % of control

CC1(C)OC2C3CC(C2O1)C1C3C2(Cl)CC1(Cl)C(Cl)=C2Cl (stereo not given)
inactive: [8] 106 % of control | [9] 99 % of control | [10] 101 % of control

CSc1ccc(N2C(=O)CCSC2=S)cc1Cl
inactive: dose: 50.0 mg/kg/injection, schedule: Q01DX009 (ip), vehicle: suspension in saline 108 % of control | dose: 100.0 mg/kg/injection, schedule: Q01DX009 (ip), vehicle: suspension in saline 110 % of control | dose: 200.0 mg/kg/injection, schedule: Q01DX009 (ip), vehicle: suspension in saline 114 % of control

COC(=O)c1cc(=O)nc(N/N=C/c2ccc3c(c2)OCO3)s1
inactive: [11] 99 % of control | [12] 94 % of control | [8] 94 % of control

CNC(=O)OCc1snc(-c2ccccc2)c1COC(=O)NC
inactive: dose: 12.5 mg/kg/injection, schedule: Q01DX005 (ip), vehicle: distilled water + Tween-80 99 % of control | dose: 25.0 mg/kg/injection, schedule: Q01DX005 (ip), vehicle: distilled water + Tween-80 101 % of control | dose: 50.0 mg/kg/injection, schedule: Q01DX005 (ip), vehicle: distilled water + Tween-80 99 % of control | dose: 100.0 mg/kg/injection, schedule: Q01DX005 (ip), vehicle: distilled water + Tween-80 96 % of control | dose: 200.0 mg/kg/injection, schedule: Q01DX005 (ip), vehicle: distilled water + Tween-80 108 % of control

CCCCOCC(C)O (stereo not given)
inactive: dose: 100.0 mg/kg/injection, schedule: Q04DX003 (ip), vehicle: saline 109 % of control | dose: 200.0 mg/kg/injection, schedule: Q04DX003 (ip), vehicle: saline 100 % of control | dose: 400.0 mg/kg/injection, schedule: Q04DX003 (ip), vehicle: saline 90 % of control

COc1cc2c(cc1OC)C(Cc1cccs1)=NCC2
inactive: [3] 100 % of control | [4] 94 % of control

COc1cc(NCCCCCNC(C)C(C)C)c2ncccc2c1 (stereo not given)
inactive: [11] 93 % of control | [12] 95 % of control | [8] 100 % of control and 96 % of control

C=CC(=C)CCC=C(C)C
inactive: [1] 104 % of control | dose: 100.0 mg/kg/injection, schedule: Q04DX003 (ip), vehicle: saline with Tween-80 110 % of control | [2] 113 % of control | dose: 200.0 mg/kg/injection, schedule: Q04DX003 (ip), vehicle: saline with Tween-80 110 % of control | dose: 400.0 mg/kg/injection, schedule: Q04DX003 (ip), vehicle: saline with Tween-80 110 % of control

CSc1n[nH]c(N)c1C(N)=O
inactive: [5] 107 % of control | [6] 100 % of control | [7] 111 % of control

O=CC(=O)c1ccc(O)cc1
inactive: dose: 18.8 mg/kg/injection, schedule: Q04DX003 (ip), vehicle: saline 101 % of control | dose: 37.5 mg/kg/injection, schedule: Q04DX003 (ip), vehicle: saline 100 % of control | dose: 75.0 mg/kg/injection, schedule: Q04DX003 (ip), vehicle: saline 103 % of control | dose: 150.0 mg/kg/injection, schedule: Q04DX003 (ip), vehicle: saline 109 % of control

C=C1C(=O)OC2/C=C(/C)C3CC(O)C(C)(CC(OC(=O)/C(C)=C/C)C12)O3 (stereo not given)
inactive: dose: 10.0 mg/kg/injection, schedule: Q01DX009 (ip), vehicle: saline with Tween-80 96 % of control and 105 % of control | dose: 20.0 mg/kg/injection, schedule: Q01DX009 (ip), vehicle: saline with Tween-80 96 % of control and 107 % of control | dose: 40.0 mg/kg/injection, schedule: Q01DX009 (ip), vehicle: saline with Tween-80 109 % of control and 119 % of control | dose: 80.0 mg/kg/injection, schedule: Q01DX009 (ip), vehicle: saline with Tween-80 123 % of control and 117 % of control

Cc1ccc(C(O)(c2nc3ccccc3s2)c2nc3ccccc3s2)cc1
inactive: dose: 50.0 mg/kg/injection, schedule: Q01DX009 (ip), vehicle: saline with Tween-80 101 % of control | [1] 112 % of control | [2] 113 % of control

N#C/C(=C\Nc1ccccn1)C(=O)c1ccccc1
inactive: dose: 60.0 mg/kg/injection, schedule: Q01DX005 (ip), vehicle: saline with Tween-80 91 % of control | dose: 120.0 mg/kg/injection, schedule: Q01DX005 (ip), vehicle: saline with Tween-80 91 % of control | dose: 240.0 mg/kg/injection, schedule: Q01DX005 (ip), vehicle: saline with Tween-80 91 % of control

COC(=O)CC1c2ccc3cc(OC)ccc3c2CCC1(C)C(=O)OC (stereo not given)
inactive: [8] 103 % of control | [9] 96 % of control | [10] 98 % of control
